Where two headings read alike, the source gives them in different places.
Target: T1, human APJ receptor (Homo sapiens, UniProt P35414)
T1 construct: expressed in transfected cells; host or cells: HEK293
T1 sequence (P35414 1-380): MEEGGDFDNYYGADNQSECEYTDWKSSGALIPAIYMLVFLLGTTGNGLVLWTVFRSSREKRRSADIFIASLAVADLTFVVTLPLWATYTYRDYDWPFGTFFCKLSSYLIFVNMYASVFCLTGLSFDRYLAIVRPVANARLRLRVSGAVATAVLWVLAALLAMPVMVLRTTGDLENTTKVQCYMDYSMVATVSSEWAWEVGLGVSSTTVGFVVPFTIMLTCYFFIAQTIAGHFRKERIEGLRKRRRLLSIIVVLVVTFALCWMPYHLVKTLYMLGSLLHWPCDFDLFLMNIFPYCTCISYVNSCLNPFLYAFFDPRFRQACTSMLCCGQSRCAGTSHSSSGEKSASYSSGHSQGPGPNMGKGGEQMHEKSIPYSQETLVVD
Assay: Intracellular cAMP accumulation assay (APJ hcAMP, HTRF)
Type: cell-based
Settings: HEK293 cells stably expressing human APJ receptor, inhibition of forskolin-mediated cAMP production
Method: Intracellular cAMP Accumulation Assay
HEK293 cells stably expressing human APJ receptor were used to assess the activity of compounds. Cultured cells were detached and resuspended in the cAMP Homogeneous Time-Resolved Fluorescence (HTRF) assay buffer (Cisbio cat; #62AM4PEJ). The assay was performed in 384-well assay plates (Perkin-Elmer; cat #6008289) according to assay protocol provided by the manufacturer. Serial dilutions of a compound together with assay buffer containing […] IBMX and 2 μM forskolin were added to each well containing 5,000 cells and incubated for 30 minutes at room temperature. Subsequently, cAMP D2 reagent was added in the lysis buffer followed by the EuK antibody (Cisbio; cat #62AM4PEJ) and incubated for 60 min. The fluorescence emission ratio was measured using fluorometer. The intracellular cAMP concentrations (compound-stimulated inhibition of forskolin-mediated cAMP production) were calculated by extrapolation from a standard curve using known cAMP concentrations. The EC50 values were obtained by fitting the data to a sigmoidal concentration-response curve with variable slope. The maximal achievable inhibition of forskolin-induced cAMP levels (Ymax) for each compound was expressed as relative percentage of inhibition attained using pyroglutamated apelin-13 ((Pyr1)apelin-13) peptide, which was set to 100%.
The examples disclosed below were tested in the APJ in vitro assays described above and were found having human APJ cyclic AMP (hcAMP) activity. The EC50 value of each compound is presented at the end of the example description.
The biological activity of the exemplified compounds of this invention determined by the assay described above is shown at the end of each example.

[1] = read-out: Human APJ cAMP Potency range
[2] = Table 1, read-out: hAPJ cAMP EC50 Potency range
[3] = hAPJ cAMP EC50 Potency range, Table 1

Row | EC50 [2] | Structure (SMILES) | further results
1 | 0.01 to 10 nM | CCCCc1nc(O)c(S(=O)(=O)c2ccc(-c3ccncc3C)cc2)c(O)c1N1CCc2ccccc21 [Example 013, 6-butyl-5-(indolin-1-yl)-3-((4-(3-methylpyridin-4-yl)phenyl)sulfonyl)pyridine-2,4-diol] | 
2 | 0.01 to 10 nM | CCCCc1nc(O)c(S(=O)(=O)c2ccc(-c3ccncc3C)cc2)c(O)c1N(C)c1ccccc1 [Example 014, 6-butyl-5-(methyl(phenyl)amino)-3-((4-(3-methylpyridin-4-yl)phenyl)sulfonyl)pyridine-2,4-diol] | 
3 | 0.01 to 10 nM | CCCCc1nc(O)c(S(=O)(=O)c2ccc(-c3ccc(F)nc3C)cc2)c(O)c1N(C)c1ccccc1 [Example 015, 6-butyl-3-((4-(6-fluoro-2-methylpyridin-3-yl)phenyl)sulfonyl)-5-(methyl(phenyl)amino)pyridine-2,4-diol] | 
4 | 0.01 to 10 nM | CCCCc1nc(O)c(S(=O)(=O)c2ccc(C3CC3)cc2)c(O)c1N(C)c1ccccc1 [Example 016, 6-butyl-3-((4-cyclopropylphenyl)sulfonyl)-5-(methyl(phenyl)amino)pyridine-2,4-diol] | 
5 | 0.01 to 10 nM | CCCCc1nc(O)c(S(=O)(=O)c2ccc(-c3cccnc3C)cc2)c(O)c1N(C)c1ccccc1 [Example 017, 6-butyl-5-(methyl(phenyl)amino)-3-((4-(2-methylpyridin-3-yl)phenyl)sulfonyl)pyridine-2,4-diol] | 
6 | 0.01 to 10 nM | CCCCc1nc(O)c(S(=O)(=O)c2ccc(-n3cc(Cl)ccc3=O)cc2)c(O)c1N(C)c1ccccc1 [Example 018, 1-(4-((6-butyl-2,4-dihydroxy-5-(methyl(phenyl)amino)pyridin-3-yl)sulfonyl)phenyl)-5-chloropyridin-2(1H)-one] | 
7 | 0.01 to 10 nM | CCCCc1nc(O)c(S(=O)(=O)c2ccc(-c3ccnc(F)c3C)cc2)c(O)c1N(c1ccccc1)C(C)C [Example 020] | 
8 | 0.01 to 10 nM | CCCCc1nc(O)c(S(=O)(=O)c2ccc(-c3ccc(F)nc3C)cc2)c(O)c1N1CCCc2ccccc21 [Example 021, 6-butyl-5-(3,4-dihydroquinolin-1(2H)-yl)-3-((4-(6-fluoro-2-methylpyridin-3-yl)phenyl)sulfonyl)pyridine-2,4-diol] | 
9 | 0.01 to 10 nM | CCCCc1nc(O)c(S(=O)(=O)c2ccc(-c3ccncc3C)cc2)c(O)c1N1CCCc2ccccc21 [Example 022, 6-butyl-5-(3,4-dihydroquinolin-1(2H)-yl)-3-((4-(3-methylpyridin-4-yl)phenyl)sulfonyl)pyridine-2,4-diol] | 
10 | 0.01 to 10 nM | CCCCc1nc(O)c(S(=O)(=O)c2ccc(-c3cccnc3C)cc2)c(O)c1N1CCCc2ccccc21 [Example 024, 6-butyl-5-(3,4-dihydroquinolin-1(2H)-yl)-3-((4-(2-methylpyridin-3-yl)phenyl)sulfonyl)pyridine-2,4-diol] | 
11 | 0.01 to 10 nM | CCCCc1nc(O)c(S(=O)(=O)c2ccc(-c3cccnc3C)cc2)c(O)c1N(c1ccccc1)C(C)C [Example 025, 6-butyl-5-(isopropyl(phenyl)amino)-3-((4-(2-methylpyridin-3-yl)phenyl)sulfonyl)pyridine-2,4-diol] | 
12 | 0.01 to 10 nM | CCCCc1nc(O)c(S(=O)(=O)c2ccc(-c3ccc(F)nc3C)cc2)c(O)c1N(c1ccccc1)C(C)C [Example 026, 6-butyl-3-((4-(6-fluoro-2-methylpyridin-3-yl)phenyl)sulfonyl)-5-(isopropyl(phenyl)amino)pyridine-2,4-diol] | 

More lines, now with the values behind:

Row | Structure (SMILES) | EC50 [2] | further results
13 | CCN(c1ccccc1)c1c(-c2ccn(C)n2)nc(O)c(C(=O)N2CCC(c3ccc(Cl)cn3)C2)c1O (single isomer, unassigned) [Example 199, (3-(5-chloropyridin-2-yl)pyrrolidin-1-yl)(5-(ethyl(phenyl)amino)-2,4-dihydroxy-6-(1-methyl-1H-pyrazol-3-yl)pyridin-3-yl)methanone] |  | EC50 [1]: 0.01 to 10 nM
14 | CCCCc1nc(O)c(S(=O)(=O)c2ccc(-c3ccnc(F)c3C)cc2)c(O)c1N1c2ccccc2CCC1C (stereo not shown) [167-I, 6-butyl-3-((4-(2-fluoro-3-methylpyridin-4-yl)phenyl)sulfonyl)-5-(2-methyl-3,4-dihydroquinolin-1(2H)-yl)pyridine-2,4-diol] | 0.01 to 10 nM | 
15 | CCCCc1nc(O)c(S(=O)(=O)c2ccc(-c3ccnc(F)c3C)cc2)c(O)c1N(C)c1cccc(C#N)c1 [AB-005, 3-((2-butyl-5-((4-(2-fluoro-3-methylpyridin-4-yl)phenyl)sulfonyl)-4,6-dihydroxypyridin-3-yl)(methyl)amino)benzonitrile] |  | EC50 [1]: 0.01 to 10 nM
16 | CCCCc1nc(O)c(C(=O)N2CC[C@@H](c3ccccc3)C2)c(O)c1N(CC)c1ccccc1 [Example 001, (S)-(6-butyl-5-(ethyl(phenyl)amino)-2,4-dihydroxypyridin-3-yl)(3-phenylpyrrolidin-1-yl)methanone] |  | EC50 (Human APJ cAMP Potency range): 10 to 100 nM
17 | CCCCc1nc(O)c(S(=O)(=O)c2ccc(-c3ccc(F)nc3)cc2)c(O)c1N(CC)c1ccccc1 [Example 002, 6-butyl-5-(ethyl(phenyl)amino)-3-((4-(6-fluoropyridin-3-yl)phenyl)sulfonyl)pyridine-2,4-diol] |  | EC50 [1]: 0.01 to 10 nM
18 | CCCCc1nc(O)c(S(=O)(=O)c2ccc(-n3cc(C)ccc3=O)cc2)c(O)c1N(CC)c1ccccc1 [Example 003, 1-(4-((6-butyl-5-(ethyl(phenyl)amino)-2,4-dihydroxypyridin-3-yl)sulfonyl)phenyl)-5-methylpyridin-2(1H)-one] |  | EC50 [1]: 0.01 to 10 nM
19 | CCCCc1nc(O)c(S(=O)(=O)c2ccc(C3CC3)cc2)c(O)c1N(CC)c1ccccc1 [Example 004, 6-butyl-3-((4-cyclopropylphenyl)sulfonyl)-5-(ethyl(phenyl)amino)pyridine-2,4-diol] |  | EC50 [1]: 0.01 to 10 nM
20 | CCCCc1nc(O)c(C(=O)N2CCC(c3ncc(F)cc3F)C2)c(O)c1N(C)c1ccccc1F (stereo not shown) [Example 006, (6-butyl-5-((2-fluorophenyl)(methyl)amino)-2,4-dihydroxypyridin-3-yl)(3-(3,5-difluoropyridin-2-yl)pyrrolidin-1-yl)methanone] |  | EC50 [1]: 0.01 to 10 nM
21 | CCCCc1nc(O)c(C(=O)N2CC[C@@H](c3ccccc3)C2)c(O)c1N(C)c1ccccc1 [Example 007, (S)-(6-butyl-2,4-dihydroxy-5-(methyl(phenyl)amino)pyridin-3-yl)(3-phenylpyrrolidin-1-yl)methanone] |  | EC50 [3]: 10 to 100 nM
22 | CCCCc1nc(O)c(C(=O)N2CC[C@H](c3ccccc3)C2)c(O)c1N(C)c1ccccc1 [Example 008, (R)-(6-butyl-2,4-dihydroxy-5-(methyl(phenyl)amino)pyridin-3-yl)(3-phenylpyrrolidin-1-yl)methanone] |  | EC50 [3]: 10 to 100 nM
23 | CCCCc1nc(O)c(C(=O)N2CC[C@H](c3ccccc3)C2)c(O)c1N1CCc2ccccc21 [Example 009, (R)-(6-butyl-2,4-dihydroxy-5-(indolin-1-yl)pyridin-3-yl)(3-phenylpyrrolidin-1-yl)methanone] |  | EC50 [3]: 10 to 100 nM
24 | CCCCc1nc(O)c(S(=O)(=O)c2ccc(Br)cc2)c(O)c1N(C)c1ccccc1 [Example 010, 3-((4-bromophenyl)sulfonyl)-6-butyl-5-(methyl(phenyl)amino)pyridine-2,4-diol] | 10 to 100 nM | 
25 | CCCCc1nc(O)c(S(=O)(=O)c2ccc(-c3ccnc(F)c3C)cc2)c(O)c1N(C)c1ccccc1 [Example 011, 6-butyl-3-((4-(2-fluoro-3-methylpyridin-4-yl)phenyl)sulfonyl)-5-(methyl(phenyl)amino)pyridine-2,4-diol] | 0.01 to 10 nM | 
26 | CCCCc1nc(O)c(S(=O)(=O)c2ccc(-c3ccc(F)nc3)cc2)c(O)c1N(C)c1ccccc1 [Example 012, 6-butyl-3-((4-(6-fluoropyridin-3-yl)phenyl)sulfonyl)-5-(methyl(phenyl)amino)pyridine-2,4-diol] | 0.01 to 10 nM | 
27 | CCCCc1nc(O)c(C(=O)N2CC[C@@H](c3ccccc3)C2)c(O)c1N1CCCc2ccccc21 [Example 019, (S)-(6-butyl-5-(3,4-dihydroquinolin-1(2H)-yl)-2,4-dihydroxypyridin-3-yl)(3-phenylpyrrolidin-1-yl)methanone] |  | EC50 [3]: 10 to 100 nM
28 | CCCCc1nc(O)c(C(=O)N2CC[C@H](c3ccccc3)C2)c(O)c1N(c1ccccc1)C(C)C [Example 023, (R)-(6-butyl-2,4-dihydroxy-5-(isopropyl(phenyl)amino)pyridin-3-yl)(3-phenylpyrrolidin-1-yl)methanone] |  | EC50 [3]: 10 to 100 nM

Source: patent US10669258B2, “3-sulfonyl-5-aminopyridine-2,4-diol APJ agonists” (BRISTOL-MYERS SQUIBB COMPANY, priority 2016, dated 2020)
